# US20090232838A1, “Ligands of melanocortin receptors” (priority 2005, published 2009)
# Where two headings read alike, the source gives them in different places. Where a SMILES comes first, the peptide text is derived from it. Bridges are numbered along the chain shown (N, C = ends). [ ]: non-standard residue; d: D form. d2Nal = N[C@H](Cc1ccc2ccccc2c1)C(=O)O; Bta = N[C@@H](Cc1csc2ccccc12)C(=O)O
# How the values were obtained:
# Format in all cases: cell-based
# hMC3-R = target: T1, hMC3-R (Homo sapiens, UniProt P41968); assay: cyclic AMP bioassay, hMC3-R
# T1 construct: expressed in transfected cells; host or cells: CHO-K1
# hMC5-R = target: T2, hMC5-R (Homo sapiens, UniProt P33032); assay: cyclic AMP bioassay, hMC5-R
# T2 construct: expressed in transfected cells; host or cells: CHO-K1
# hMC1-R = target: T3, hMC1-R (Homo sapiens, UniProt Q01726); assay: cyclic AMP bioassay, hMC1-R
# T3 construct: expressed in transfected cells; host or cells: CHO-K1
# hMC4-R = target: T4, hMC4-R (Homo sapiens, UniProt P32245); assay: cyclic AMP bioassay, hMC4-R
# T4 construct: expressed in transfected cells; host or cells: CHO-K1
# [1] = Table 3A, cAMP in CHO-K1 cells, antagonist potency by Schild analysis, read-out: Kb hMC3-R
# [2] = Table 3A, cAMP in CHO-K1 cells, agonist, read-out: EC50 hMC5-R
# [3] = Table 3A, cAMP in CHO-K1 cells, agonist, read-out: EC50 hMC1-R
# [4] = Table 3A, cAMP in CHO-K1 cells, antagonist potency by Schild analysis, read-out: Kb hMC4-R
# T2 sequence (P33032 whole entry): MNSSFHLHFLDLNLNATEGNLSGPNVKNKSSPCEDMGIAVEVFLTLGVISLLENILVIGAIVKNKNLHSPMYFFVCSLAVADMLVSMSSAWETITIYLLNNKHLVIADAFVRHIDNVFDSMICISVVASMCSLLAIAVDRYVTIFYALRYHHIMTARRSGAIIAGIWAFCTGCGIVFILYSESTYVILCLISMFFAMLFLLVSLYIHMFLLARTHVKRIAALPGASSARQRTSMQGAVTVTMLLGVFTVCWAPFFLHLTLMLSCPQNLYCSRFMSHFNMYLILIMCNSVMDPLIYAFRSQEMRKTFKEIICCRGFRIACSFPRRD
# T3 sequence (Q01726 whole entry): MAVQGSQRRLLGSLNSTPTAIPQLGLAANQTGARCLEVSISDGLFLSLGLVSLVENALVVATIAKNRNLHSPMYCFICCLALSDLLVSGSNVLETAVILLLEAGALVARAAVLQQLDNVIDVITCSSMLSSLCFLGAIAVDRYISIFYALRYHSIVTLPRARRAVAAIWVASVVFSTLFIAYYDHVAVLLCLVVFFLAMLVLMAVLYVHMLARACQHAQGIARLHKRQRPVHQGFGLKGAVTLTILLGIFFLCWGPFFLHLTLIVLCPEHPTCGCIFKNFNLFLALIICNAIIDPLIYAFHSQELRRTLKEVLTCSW
# T1 sequence (P41968 whole entry): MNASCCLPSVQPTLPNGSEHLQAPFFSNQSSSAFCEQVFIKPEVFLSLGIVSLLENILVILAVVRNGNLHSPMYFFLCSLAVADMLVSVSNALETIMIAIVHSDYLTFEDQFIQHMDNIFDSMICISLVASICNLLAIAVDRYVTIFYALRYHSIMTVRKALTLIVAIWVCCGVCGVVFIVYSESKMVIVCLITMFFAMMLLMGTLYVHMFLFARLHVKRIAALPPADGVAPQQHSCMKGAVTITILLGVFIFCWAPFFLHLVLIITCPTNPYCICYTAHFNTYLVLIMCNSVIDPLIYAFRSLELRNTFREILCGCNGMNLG
# T4 sequence (P32245 whole entry): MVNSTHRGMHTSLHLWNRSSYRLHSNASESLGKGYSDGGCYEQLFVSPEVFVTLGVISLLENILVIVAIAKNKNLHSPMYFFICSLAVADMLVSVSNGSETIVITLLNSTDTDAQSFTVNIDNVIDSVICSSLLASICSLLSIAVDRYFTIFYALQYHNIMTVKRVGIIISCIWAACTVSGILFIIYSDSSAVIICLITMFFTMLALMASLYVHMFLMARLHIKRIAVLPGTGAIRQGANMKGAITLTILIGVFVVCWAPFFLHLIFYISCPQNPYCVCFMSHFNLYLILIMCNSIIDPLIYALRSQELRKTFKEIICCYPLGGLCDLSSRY
SMILES,Kb (hMC3-R) [nM],EC50 (hMC5-R) [nM],EC50 (hMC1-R) [nM],Kb (hMC4-R) [nM],Kb (hMC3-R; [1]) [nM],EC50 (hMC5-R; [2]) [nM],EC50 (hMC1-R; [3]) [nM],Kb (hMC4-R; [4]) [nM],EC50 (hMC3-R) [nM],EC50 (hMC4-R) [nM]
CC(=O)N[C@H]1CSSC[C@@H](C(=O)N2CCC[C@H]2C(=O)N2CCC[C@H]2C(=O)N[C@@H](CCCCN)C(=O)N[C@@H](CC(=O)O)C(=O)NCCC(=O)N[C@@H](Cc2ccc(O)cc2)C(=O)NCC(=O)N[C@@H](CCCNC(=N)N)C(=O)N[C@@H](CCCCN)C(=O)N[C@@H](CCCNC(=N)N)C(=O)N[C@@H](CCCNC(=N)N)C(=O)N[C@@H](CCCNC(=N)N)C(=O)N[C@@H](CCC(N)=O)C(=O)N[C@@H](CCCNC(=N)N)C(=O)N[C@@H](CCCNC(=N)N)C(=O)N[C@@H](CCCNC(=N)N)C(N)=O)NC(=O)[C@H](C)NC(=O)[C@H](Cc2ccc3ccccc3c2)NC(=O)[C@H](CCCNC(=N)N)NC(=O)[C@@H](Cc2ccc3ccccc3c2)NC(=O)[C@H](Cc2c[nH]cn2)NC(=O)[C@H](CCC(=O)O)NC1=O,15,28.2,34.7,8.68,,,,,,
CC(=O)N[C@H]1CSSC[C@@H](C(=O)N2CCC[C@H]2C(=O)N2CCC[C@H]2C(=O)N[C@@H](CCCCN)C(=O)N[C@@H](CC(=O)O)C(=O)NCCC(=O)NCC(=O)N[C@@H](CCCNC(=N)N)C(=O)N[C@@H](CCCNC(=N)N)C(=O)N[C@@H](CCCCN)C(=O)N[C@@H](CCCNC(=N)N)C(=O)N[C@@H](CCCNC(=N)N)C(=O)N[C@@H](CCC(N)=O)C(=O)N[C@@H](CCCNC(=N)N)C(=O)N[C@@H](CCCNC(=N)N)C(=O)N[C@@H](CCCNC(=N)N)C(N)=O)NC(=O)[C@H](C)NC(=O)[C@H](Cc2ccc3ccccc3c2)NC(=O)[C@H](CCCNC(=N)N)NC(=O)[C@@H](Cc2ccc3ccccc3c2)NC(=O)[C@H](Cc2c[nH]cn2)NC(=O)[C@H](CCC(=O)O)NC1=O,12.7,162,45.4,12.7,,,,,,
CC(=O)N[C@H]1CSSC[C@@H](C(=O)N2CCC[C@H]2C(=O)N2CCC[C@H]2C(=O)N[C@@H](CCCCN)C(=O)N[C@@H](CC(=O)O)C(=O)NCCC(=O)N[C@@H](Cc2ccc(O)cc2)C(=O)NCC(=O)N[C@@H](CCCNC(=N)N)C(=O)N[C@@H](CCCCN)C(=O)N[C@@H](CCCCN)C(=O)N[C@@H](CCCNC(=N)N)C(=O)N[C@@H](CCCNC(=N)N)C(=O)N[C@@H](CCCNC(=N)N)C(=O)N[C@@H](CCCNC(=N)N)C(=O)N[C@@H](CCCNC(=N)N)C(=O)N[C@@H](CCC(N)=O)C(N)=O)NC(=O)[C@H](C)NC(=O)[C@H](Cc2c[nH]c3ccccc23)NC(=O)[C@H](CCCNC(=N)N)NC(=O)[C@@H](Cc2ccc3ccccc3c2)NC(=O)[C@H](Cc2c[nH]cn2)NC(=O)[C@H](CCC(=O)O)NC1=O,12.2,51.7,7.5,7.61,,,,,,
CC(=O)N[C@H]1CSSC[C@@H](C(=O)N2CCC[C@H]2C(=O)N2CCC[C@H]2C(=O)N[C@@H](CCCCN)C(=O)N[C@@H](CC(=O)O)C(N)=O)NC(=O)[C@H](C)NC(=O)[C@H](Cc2c[nH]c3ccccc23)NC(=O)[C@H](CCCNC(=N)N)NC(=O)[C@@H](Cc2ccc3ccccc3c2)NC(=O)[C@H](Cc2c[nH]cn2)NC(=O)[C@H](CCC(=O)O)NC1=O [Ac-c(Cys-Glu-His-D-2-Nal-Arg-Trp-Ala-Cys)-Pro-Pro-Lys-Asp-NH2] (Ac-CEH[d2Nal]RWACPPKD-NH2; disulfide 1-8),,,,,33.4,6.84,66.1,0.687,,
CC(=O)N[C@H]1CSSC[C@@H](C(=O)N2CCC[C@H]2C(=O)N2CCC[C@H]2C(=O)N[C@@H](CCCNC(=N)N)C(=O)N[C@@H](CC(=O)O)C(=O)NCCC(=O)N[C@@H](CCCNC(=N)N)C(=O)N[C@@H](CCCNC(=N)N)C(=O)N[C@@H](CCCNC(=N)N)C(=O)N[C@@H](CCCNC(=N)N)C(=O)N[C@@H](CCCNC(=N)N)C(=O)N[C@@H](CCC(N)=O)C(=O)N[C@@H](CCCNC(=N)N)C(=O)N[C@@H](CCCNC(=N)N)C(=O)N[C@@H](CCCNC(=N)N)C(N)=O)NC(=O)[C@H](C)NC(=O)[C@H](Cc2ccc3ccccc3c2)NC(=O)[C@H](CCCNC(=N)N)NC(=O)[C@@H](Cc2ccc3ccccc3c2)NC(=O)[C@H](Cc2c[nH]cn2)NC(=O)[C@H](CCC(=O)O)NC1=O,30.9,501,39.7,6.66,,,,,,
CCCC[C@H](NC(C)=O)C(=O)N[C@H]1CSSC[C@@H](C(=O)NCCC(=O)N[C@@H](Cc2ccc(O)cc2)C(=O)NCC(=O)N[C@@H](CCCNC(=N)N)C(=O)N[C@@H](CCCNC(=N)N)C(=O)N[C@@H](CCCNC(=N)N)C(=O)N[C@@H](CCCNC(=N)N)C(=O)N[C@@H](CCCNC(=N)N)C(=O)N[C@@H](CCC(N)=O)C(=O)N[C@@H](CCCNC(=N)N)C(=O)N[C@@H](CCCNC(=N)N)C(=O)N[C@@H](CCCNC(=N)N)C(N)=O)NC(=O)[C@H](Cc2c[nH]c3ccccc23)NC(=O)[C@H](CCCNC(=N)N)NC(=O)[C@@H](Cc2ccccc2)NC(=O)[C@H](Cc2c[nH]cn2)NC(=O)[C@@H](C)NC1=O,10.5,4900,7.86,0.843,,,,,,
CC(=O)N[C@H]1CSSC[C@@H](C(=O)N2CCC[C@H]2C(=O)N2CCC[C@H]2C(=O)N[C@@H](CCCCN)C(=O)N[C@@H](CC(=O)O)C(=O)NCCC(=O)N[C@@H](Cc2ccc(O)cc2)C(=O)NCC(=O)N[C@@H](CCCNC(=N)N)C(=O)N[C@@H](CCCCN)C(=O)N[C@@H](CCC(N)=O)C(=O)N[C@@H](CCCCN)C(=O)N[C@@H](CCCNC(=N)N)C(=O)N[C@@H](CCCNC(=N)N)C(=O)N[C@@H](CCCNC(=N)N)C(=O)N[C@@H](CCCNC(=N)N)C(=O)N[C@@H](CCCNC(=N)N)C(N)=O)NC(=O)[C@H](C)NC(=O)[C@H](Cc2c[nH]c3ccccc23)NC(=O)[C@H](CCCNC(=N)N)NC(=O)[C@@H](Cc2ccc3ccccc3c2)NC(=O)[C@H](Cc2c[nH]cn2)NC(=O)[C@H](CCC(=O)O)NC1=O,,,,,41.7,62.4,7.9,10.9,,
CC(=O)N[C@H]1CSSC[C@@H](C(=O)N2CCC[C@H]2C(=O)N2CCC[C@H]2C(=O)N[C@@H](CCCCN)C(=O)N[C@@H](CC(=O)O)C(=O)NCCC(=O)N[C@@H](Cc2ccc(O)cc2)C(=O)NCC(=O)N[C@@H](CCCNC(=N)N)C(=O)N[C@@H](CCCNC(=N)N)C(=O)N[C@@H](CCCCN)C(=O)N[C@@H](CCCNC(=N)N)C(=O)N[C@@H](CCCNC(=N)N)C(=O)N[C@@H](CCC(N)=O)C(=O)N[C@@H](CCCNC(=N)N)C(=O)N[C@@H](CCCNC(=N)N)C(=O)N[C@@H](CCCNC(=N)N)C(N)=O)NC(=O)[C@H](C)NC(=O)[C@H](Cc2cccc3ccccc23)NC(=O)[C@H](CCCNC(=N)N)NC(=O)[C@@H](Cc2ccc3ccccc3c2)NC(=O)[C@H](Cc2c[nH]cn2)NC(=O)[C@H](CCC(=O)O)NC1=O,22.6,173,29,16.7,,,,,,
CCCC[C@H](NC(C)=O)C(=O)N[C@H]1CC(=O)NCCCC[C@@H](C(=O)NCCOCCOCC(=O)NCCOCCOCC(=O)N[C@@H](Cc2ccc(O)cc2)C(=O)NCC(=O)N[C@@H](CCCNC(=N)N)C(=O)N[C@@H](CCCCN)C(=O)N[C@@H](CCCCN)C(=O)N[C@@H](CCCNC(=N)N)C(=O)N[C@@H](CCCNC(=N)N)C(=O)N[C@@H](CCC(N)=O)C(=O)N[C@@H](CCCNC(=N)N)C(=O)N[C@@H](CCCNC(=N)N)C(=O)N[C@@H](CCCNC(=N)N)C(N)=O)NC(=O)[C@H](Cc2c[nH]c3ccccc23)NC(=O)[C@H](CCCNC(=N)N)NC(=O)[C@@H](Cc2ccc3ccccc3c2)NC(=O)[C@H](Cc2c[nH]cn2)NC1=O,,,,,8.97,2.86,3.23,4.61,,
CCCC[C@H](NC(C)=O)C(=O)N[C@H]1CC(=O)NCCCC[C@@H](C(=O)NCCC(=O)NCCC(=O)N[C@@H](Cc2ccc(O)cc2)C(=O)NCC(=O)N[C@@H](CCCNC(=N)N)C(=O)N[C@@H](CCCCN)C(=O)N[C@@H](CCCCN)C(=O)N[C@@H](CCCNC(=N)N)C(=O)N[C@@H](CCCNC(=N)N)C(=O)N[C@@H](CCC(N)=O)C(=O)N[C@@H](CCCNC(=N)N)C(=O)N[C@@H](CCCNC(=N)N)C(=O)N[C@@H](CCCNC(=N)N)C(N)=O)NC(=O)[C@H](Cc2c[nH]c3ccccc23)NC(=O)[C@H](CCCNC(=N)N)NC(=O)[C@@H](Cc2ccc3ccccc3c2)NC(=O)[C@H](Cc2c[nH]cn2)NC1=O,,,,,16.2,0.839,1.39,7.94,,
CC(=O)N[C@H]1CSSC[C@@H](C(=O)N2CCC[C@H]2C(=O)N2CCC[C@H]2C(=O)N[C@@H](CCCCN)C(=O)N[C@@H](CC(=O)O)C(N)=O)NC(=O)[C@H](C)NC(=O)[C@H](Cc2csc3ccccc23)NC(=O)[C@H](CCCNC(=N)N)NC(=O)[C@@H](Cc2ccc3ccccc3c2)NC(=O)[C@H](Cc2c[nH]cn2)NC(=O)[C@H](CCC(=O)O)NC1=O [Ac-c(Cys-Glu-His-D-2-Nal-Arg-Bal-Ala-Cys)-Pro-Pro-Lys-Asp-NH2] (Ac-CEH[d2Nal]R[Bta]ACPPKD-NH2; disulfide 1-8),70.7,177,690,4.56,,,,,,
CCCC[C@H](NC(C)=O)C(=O)N[C@H]1CSSC[C@@H](C(=O)NCCC(=O)N[C@@H](CCCNC(=N)N)C(=O)N[C@@H](CCCNC(=N)N)C(=O)N[C@@H](CCCNC(=N)N)C(=O)N[C@@H](CCCNC(=N)N)C(=O)N[C@@H](CCCNC(=N)N)C(=O)N[C@@H](CCC(N)=O)C(=O)N[C@@H](CCCNC(=N)N)C(=O)N[C@@H](CCCNC(=N)N)C(=O)N[C@@H](CCCNC(=N)N)C(N)=O)NC(=O)[C@H](Cc2c[nH]c3ccccc23)NC(=O)[C@H](CCCNC(=N)N)NC(=O)[C@@H](Cc2ccccc2)NC(=O)[C@H](Cc2c[nH]cn2)NC(=O)[C@@H](C)NC1=O,,1570,7.15,,,,,,9.37,1.25
